The text below walks through data of article PMC11252457 (Acta Pharmaceutica Sinica. B, 2024).

In data set [1] the test system is HIV-1 RES056 (K103N/Y181C). Briefly: microbe, parasite or virus in culture. The format is cell-based. As to conditions: for EC50: Human immunodeficiency virus 1, MT4, read-out: EC50 RES056.
For data set [2], the system named is HIV-1 mutant strain Y181C. Briefly: microbe, parasite or virus in culture. The format is cell-based. The note with it: for EC50: Human immunodeficiency virus 1, MT4, read-out: EC50 Y181C.
In a further data set the test system is WT HIV-1 (IIIB). As to the kind of experiment: microbe, parasite or virus in culture. The data set is classed as cell-based. As to conditions: for EC50: Human immunodeficiency virus 1, IIIB, MT4, read-out: EC50 IIIB.
In the next data set the target is recombinant WT HIV-1 RT (Human immunodeficiency virus type 1 group M subtype B, UniProt P03366). Briefly: HIV-1 RT inhibition assay. The data set is classed as biochemical.
Data set [3] in a line: Cytotoxicity in mock-infected MT-4 cells. As to conditions: human.
Data set [4] deals with HIV-1 mutant strain K103N. As to the kind of experiment: microbe, parasite or virus in culture. The format is cell-based. As to conditions: for EC50: Human immunodeficiency virus 1, MT4, read-out: EC50 K103N.
Data set [5] has as its system HIV-1 mutant strain Y188L. As to the kind of experiment: microbe, parasite or virus in culture. As to conditions: for EC50: Human immunodeficiency virus 1, MT4, read-out: EC50 Y188L. The data set is classed as cell-based.
A short description of the next data set: Aqueous solubility. The data set is classed as physicochemical.
Data set [6] has as its system HIV-1 mutant strain E138K. As to the kind of experiment: microbe, parasite or virus in culture. The format is cell-based. As to conditions: for EC50: Human immunodeficiency virus 1, MT4, read-out: EC50 E138K.
For data set [7], the system named is HIV-1 double mutant strain F227L/V106A. Briefly: microbe, parasite or virus in culture. The format is cell-based. As to conditions: for EC50: Human immunodeficiency virus 1, MT4, read-out: EC50 F227L/V106A.
In data set [8] the test system is HIV-1 mutant strain L100I. As to the kind of experiment: microbe, parasite or virus in culture. The data set is classed as cell-based. As to conditions: Human immunodeficiency virus 1, MT4, read-out: EC50 L100I.
The conditions of data set [9]: cited from earlier work.

Values joined by “and” are separate entries in the source; they are usually repeats but may differ in a detail not shown here. Equal entries are not always repeated. Where two headings read alike, the source gives them in different places. Some results are limits rather than exact numbers.

By IC50 is commonly meant the concentration at which inhibition is half-maximal. The term CC50 denotes the concentration that lowers cell viability or growth by half. Lower therefore signals harm at low concentration. As usually defined, the Aqueous solubility is how much of the substance goes into solution per volume. With `Cc1cc(/C=C/C#N)cc(C)c1Oc1nc(NC2CCN(Cc3ccc(P(C)(C)=O)cc3)CC2)nc2ccsc12` [15a, (E)-3-(4-((2-((1-(4-(Dimethylphosphoryl)benzyl)piperidin-4-yl)amino)thieno[3,2-d]pyrimidin-4-yl)oxy)-3,5-dimethylphenyl)acrylonitrile], in data set [1], the “Fold more effective than ETR, RES056” value is 5.3 fold and the EC50 came out at 15.8 ± 2.62 nM. In addition, in data set [2], the “Fold more effective than ETR, Y181C” value was 3.3 fold and ~3.31 fold; the EC50 was found to be 5.38 ± 1.61 nM. In the data set on WT HIV-1 (IIIB), the “Fold more effective than ETR, WT” value amounted to 1.6 fold and the EC50 amounted to 1.75 ± 0.64 nM. The IC50 on recombinant WT HIV-1 RT was 340 ± 90 nM. In [3], this molecule returned a CC50 at 5 days of 117000 ± 23900 nM. For the same molecule, in [4], the “Fold more effective than ETR, K103N” value was 2.4 fold and ~2.39 fold; the EC50 stood at 1.27 ± 0.68 nM. In [5], the “Fold higher activity than RPV, Y188L” value is recorded as “about 9.97 fold”; the “Fold more effective than ETR, Y188L” value is given as roughly 2.78 fold; the EC50 was 7.96 ± 3.89 nM. Also, in “Aqueous solubility” (pH = 2.0), the Aqueous solubility was determined as 283 µg/mL. The molecule further registered an Aqueous solubility in the data set “Aqueous solubility” (pH = 7.4) of 27.6 µg/mL. Also, in data set [6], the “Fold more effective than ETR, E138K” value is given as roughly 2.45 fold and the EC50 worked out at 4.28 ± 1.04 nM. In data set [7], the “Fold higher activity than RPV, F227L/V106A” value is listed as roughly 21.7 fold; the “Fold more effective than ETR, F227L/V106A” value was 4.8 fold and ~4.84 fold; the EC50 is 3.76 ± 0.46 nM. Moreover, the EC50 in [8] stood at 2.84 ± 0.09 nM.
As to `Cc1cc(C#N)cc(C)c1Oc1nc(Nc2ccc(C#N)cc2)nc(N)c1Br` [ETR, etravirine, reference compound], the figures for the Aqueous solubility in [9] (pH = 2.0), in data set [9] (pH = 7.0) and in data set [9] (pH = 7.4) were 127 µg/mL, <<1 μg/mL and less than 1 µg/mL, respectively. In addition, the EC50 in [1] worked out at 83.3 ± 21.1 nM; in data set [2], 17.8 ± 5.74 nM; with WT HIV-1 (IIIB) it was 2.81 ± 1.08 nM; in data set [4], 3.04 ± 0.9 nM; in [5] it was 22.1 ± 6.33 nM; in [6], 10.5 ± 2.49 nM. In addition, the values for the EC50 in [7] and in data set [8] were 18.2 ± 12.4 nM and 8.39 ± 3.4 nM, respectively. Further, the CC50 at 5 days in [3] is greater than 4590 nM.
